Test results published in patent publication US9603858B2, “Compositions for preventing and treating an immune system disorder” (RAISIO NUTRITION LTD., priority 2010, dated 2017).

Columns and labels:
TLR2 = target: T1, TLR2 (Homo sapiens, UniProt O60603); test: Mechanism of the Th1 shift: TLR2 activation; assay type: cell-based
T1 construct: endogenous in cells

[1] = system: PBMCs from asthma patients; test: Cytokine production in PHA stimulated PBMCs cultured ex vivo with sitostanol; assay type: cell-based, human; details: sitostanol 1.2 μM, 52 hours PHA stimulation
Source text: 20 people were enrolled in the study: 10 asthma patients and 10 healthy controls. Healthy controls were matched to the asthma patients in sex, age and body mass index (BMI). Exclusion criteria were smoking, diabetes, autoimmune diseases, inflammatory diseases, and the use of plant stanol or plant sterol enriched food products. Blood was taken twice from each participant, with a four-week interval. Peripheral blood mononuclear cells (PBMCs) were isolated and cultured with either cholesterol or sitostanol added to the culture. The concentration of PBMCs in the test culture was the same as in blood naturally. The concentrations of sitostanol and cholesterol were 1.2 μM. After 52 hours of stimulation with PHA (phytohemagglutinin), cytokine concentrations in the culture medium were determined. Cholesterol was added as a control to see whether the observed effects were specific plant stanol effects.

T1 sequence (O60603 21-784): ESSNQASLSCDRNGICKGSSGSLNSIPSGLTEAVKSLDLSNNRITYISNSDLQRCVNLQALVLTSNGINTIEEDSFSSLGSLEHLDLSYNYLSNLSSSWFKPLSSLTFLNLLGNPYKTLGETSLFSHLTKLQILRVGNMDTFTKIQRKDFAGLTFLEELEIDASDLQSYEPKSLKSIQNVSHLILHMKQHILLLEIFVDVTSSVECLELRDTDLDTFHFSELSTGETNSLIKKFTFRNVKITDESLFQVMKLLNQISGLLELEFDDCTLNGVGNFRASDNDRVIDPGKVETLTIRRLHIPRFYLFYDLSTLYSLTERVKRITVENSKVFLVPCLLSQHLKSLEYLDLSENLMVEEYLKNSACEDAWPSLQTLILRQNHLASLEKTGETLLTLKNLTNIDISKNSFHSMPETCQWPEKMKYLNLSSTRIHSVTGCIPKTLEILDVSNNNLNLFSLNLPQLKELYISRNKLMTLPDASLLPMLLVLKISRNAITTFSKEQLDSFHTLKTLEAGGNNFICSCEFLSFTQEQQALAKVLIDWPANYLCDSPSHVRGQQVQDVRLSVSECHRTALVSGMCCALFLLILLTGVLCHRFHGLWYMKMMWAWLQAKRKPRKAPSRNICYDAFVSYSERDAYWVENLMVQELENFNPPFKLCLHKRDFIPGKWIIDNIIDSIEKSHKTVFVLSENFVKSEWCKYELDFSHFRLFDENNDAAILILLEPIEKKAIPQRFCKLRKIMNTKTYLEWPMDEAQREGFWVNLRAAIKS

Compound: CC[C@H](CC[C@@H](C)[C@H]1CC[C@H]2[C@@H]3CC[C@H]4C[C@@H](O)CC[C@]4(C)[C@H]3CC[C@]12C)C(C)C [sitostanol]
- Th1 shift via activation of TLR2 (TLR2): induces this Th1 shift via activation of TLR2
- IFNγ concentration in the culture medium, change vs. control condition ([1]; FIG. 1): increases
- IL-2 concentration in the culture medium, change vs. control condition ([1]; FIG. 1): increases
- IL-10 production in PBMCs from asthma patients, change vs. control condition ([1]; FIG. 2): induces IL-10 production
